In US20220143150A1 (ENZENE BIOSCIENCES LIMITED, priority 2019, published 2022):

Columns and labels:
[1] = Pharmacokinetic analysis in STZ-induced diabetes mellitus Wistar rats, single subcutaneous dose, serum ELISA; format: in vivo; details: male, rat, sc, STZ diabetic Wistar rats, single dose 5 mg/kg subcutaneous
Protocol: Streptozotocin (STZ), preferentially toxic to pancreatic beta cells, is commonly used to model […] diabetes mellitus (DM) in numerous species, including Wistar rat. 12-14 week-old male Wistar rats (300-380 g body weight) were selected for the study. Rats were randomly distributed to different groups based on ad-lib fed blood glucose and body weight. The diabetes mellitus (DM) was induced in Wister rats by single intraperitoneal injection of streptozotocin at 60 mg/kg STZ (n=6) in both control and test group for two weeks.
Basal glucose levels were recorded for all the animals before injecting STZ. All animals were again evaluated for the elevated blood levels after 15 days of STZ treatment. After the confirmation of high glucose levels animals were treated with single dose (5 mg/kg) of Liraglutide and D-Liraglutide by subcutaneous route.
Blood samples were collected at 0 (Pre-dose), 1, 2, 4, 8, 12, 24, 48, 72, 96, 120 and 144 h, post dose. At each time point, approximately, 0.3 mL of blood was withdrawn through retro orbital plexus under light isoflurane anesthesia in a labeled microfuge tube. All blood samples were centrifuged at 7000 rpm for 5 min at set temperature of 4° C. […]
The ELISA was performed for the quantitative measurement of the Liraglutide in the serum samples using Cloud-Clone Corp. (CEV769Ge 96 Tests) kit. […]

[2] = once-weekly subcutaneous injection, dose of 0.5 or 1 mg; cited from earlier work

| MRT [1] [h] | Compound | half-life [2] [h] | time to reach steady state [2] |
| --- | --- | --- | --- |
| 34.8 | CCCCCCCCCCCCCCCC(=O)N[C@@H](CCC(=O)NCCCC[C@H](NC(=O)[C@H](C)NC(=O)[C@H](C)NC(=O)[C@H](CCC(N)=O)NC(=O)CNC(=O)[C@H](CCC(=O)O)NC(=O)[C@H](CC(C)C)NC(=O)[C@H](Cc1ccc(O)cc1)NC(=O)[C@H](CO)NC(=O)[C@H](CO)NC(=O)[C@@H](NC(=O)[C@H](CC(=O)O)NC(=O)[C@H](CO)NC(=O)[C@@H](NC(=O)[C@H](Cc1ccccc1)NC(=O)[C@@H](NC(=O)CNC(=O)[C@H](CCC(=O)O)NC(=O)[C@H](C)NC(=O)[C@@H](N)Cc1cnc[nH]1)[C@@H](C)O)[C@@H](C)O)C(C)C)C(=O)N[C@@H](CCC(=O)O)C(=O)N[C@@H](Cc1ccccc1)C(=O)N[C@H](C(=O)N[C@@H](C)C(=O)N[C@@H](Cc1c[nH]c2ccccc12)C(=O)N[C@@H](CC(C)C)C(=O)N[C@H](C(=O)N[C@@H](CCCNC(=N)N)C(=O)NCC(=O)N[C@@H](CCCNC(=N)N)C(=O)NCC(=O)O)C(C)C)[C@@H](C)CC)C(=O)O [Liraglutide] |  |  |
|  | semaglutide | 170 | 4-5 weeks |
